Results reported in PubChem BioAssay AID2060488 (Molecular Pharmacology Branch, DTP, NCI, 2025).

System: 966289-007-R4-J1-PDC complex spheroid viability
Assay: Anticancer human tumor 966289-007-R4-J1-PDC patient-derived pancreatic adenocarcinoma cell line growth inhibition [GQUAD]
Conditions: for IC50: curve of first compound; for viability, T/C: stronger effect = lower value
Outline: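 Viability of tumor cells grown as complex spheroids with endothelial and stromal cells, exposed to drug combinations. Top concentration at or near clinical Cmax (else 10 microM), diluted in half-log increments.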

[1] = second compound 0.0316 µM, first compound 0.0316 µM
[2] = second compound 0.0316 µM, first compound 0.316 µM
[3] = second compound 0.1 µM, first compound 0.0316 µM
[4] = second compound 0.1 µM, first compound 0.316 µM
[5] = second compound 0.316 µM, first compound 0.0316 µM
[6] = second compound 0.316 µM, first compound 0.316 µM
[7] = second compound 1 µM, first compound 0.0316 µM
[8] = second compound 1 µM, first compound 0.316 µM
[9] = second compound 3.16 µM, first compound 0.0316 µM
[10] = second compound 3.16 µM, first compound 0.316 µM
[11] = second compound 10 µM, first compound 0.0316 µM
[12] = second compound 10 µM, first compound 0.316 µM
[13] = second compound 0.0316 µM, first compound 0.1 µM
[14] = second compound 0.0316 µM, first compound 1 µM
[15] = second compound 0.0316 µM, first compound 3.16 µM
[16] = second compound 0.0316 µM, first compound 10 µM
[17] = second compound 0.1 µM, first compound 0.1 µM
[18] = second compound 0.1 µM, first compound 1 µM
[19] = second compound 0.1 µM, first compound 3.16 µM
[20] = second compound 0.1 µM, first compound 10 µM
[21] = second compound 0.316 µM, first compound 0.1 µM
[22] = second compound 0.316 µM, first compound 1 µM
[23] = second compound 0.316 µM, first compound 3.16 µM
[24] = second compound 0.316 µM, first compound 10 µM
[25] = second compound 1 µM, first compound 0.1 µM
[26] = second compound 1 µM, first compound 1 µM
[27] = second compound 1 µM, first compound 3.16 µM
[28] = second compound 1 µM, first compound 10 µM
[29] = second compound 3.16 µM, first compound 0.1 µM
[30] = second compound 3.16 µM, first compound 1 µM
[31] = second compound 3.16 µM, first compound 3.16 µM
[32] = second compound 3.16 µM, first compound 10 µM
[33] = second compound 10 µM, first compound 0.1 µM
[34] = second compound 10 µM, first compound 1 µM
[35] = second compound 10 µM, first compound 3.16 µM
[36] = second compound 10 µM, first compound 10 µM
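Further: spheroids exposed to the agents for seven days before readout.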
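Wherever viability, T/C is given: percent viability relative to DMSO vehicle control wells taken as 100%.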

`CCc1c2c(nc3ccc(O)cc13)-c1cc3c(c(=O)n1C2)COC(=O)[C@]3(O)CC` + Cc1[nH]c2ccc(F)cc2c1-c1nc2c3cccnc3c3ncccc3c2[nH]1 was tested, and the IC50 (second compound 0.0316 µM) was < 0.999 nM, the IC50 (second compound 0.1 µM) was < 0.999 nM and the IC50 (second compound 0.316 µM) was < 0.999 nM. For the same molecule, the IC50 (second compound 1 µM) was < 0.999 nM, the IC50 (second compound 3.16 µM) was < 0.999 nM and the IC50 (second compound 10 µM) was < 0.999 nM. The viability, T/C (second compound 0.0316 µM, first compound 0.000999 µM) was 20.7%, the viability, T/C (second compound 0.0316 µM, first compound 0.00316 µM) was 0.77% and the viability, T/C (second compound 0.0316 µM, first compound 0.00999 µM) was 0.82%. For the same molecule, the viability, T/C [1] was 0.49%, the viability, T/C (second compound 0.0316 µM, first compound 0.0999 µM) was 0.89% and the viability, T/C [2] was 0.5%. It also gave a viability, T/C (second compound 0.1 µM, first compound 0.000999 µM) of 17.3%, a viability, T/C (second compound 0.1 µM, first compound 0.00316 µM) of 0.75% and a viability, T/C (second compound 0.1 µM, first compound 0.00999 µM) of 0.91%. The viability, T/C [3] was 0.51%, the viability, T/C (second compound 0.1 µM, first compound 0.0999 µM) was 0.52% and the viability, T/C [4] was 0.36%. For the same molecule, the viability, T/C (second compound 0.316 µM, first compound 0.000999 µM) was 15.4%, the viability, T/C (second compound 0.316 µM, first compound 0.00316 µM) was 0.9% and the viability, T/C (second compound 0.316 µM, first compound 0.00999 µM) was 0.74%. The viability, T/C [5] was 0.45%, the viability, T/C (second compound 0.316 µM, first compound 0.0999 µM) was 0.43% and the viability, T/C [6] was 0.36%. For the same molecule, the viability, T/C (second compound 1 µM, first compound 0.000999 µM) was 14.3%, the viability, T/C (second compound 1 µM, first compound 0.00316 µM) was 1.12% and the viability, T/C (second compound 1 µM, first compound 0.00999 µM) was 0.71%. It also gave a viability, T/C [7] of 0.56%, a viability, T/C (second compound 1 µM, first compound 0.0999 µM) of 0.34% and a viability, T/C [8] of 0.36%. For the same molecule, the viability, T/C (second compound 3.16 µM, first compound 0.000999 µM) was 9.81%, the viability, T/C (second compound 3.16 µM, first compound 0.00316 µM) was 1.09% and the viability, T/C (second compound 3.16 µM, first compound 0.00999 µM) was 0.59%. The viability, T/C [9] was 0.67%, the viability, T/C (second compound 3.16 µM, first compound 0.0999 µM) was 0.58% and the viability, T/C [10] was 0.4%. For the same molecule, the viability, T/C (second compound 10 µM, first compound 0.000999 µM) was 5.35%, the viability, T/C (second compound 10 µM, first compound 0.00316 µM) was 1.12% and the viability, T/C (second compound 10 µM, first compound 0.00999 µM) was 0.71%. It also gave a viability, T/C [11] of 0.43%, a viability, T/C (second compound 10 µM, first compound 0.0999 µM) of 0.31% and a viability, T/C [12] of 0.38%.
With `CC(=O)O[C@H]1C(=O)[C@@]2(C)[C@H]([C@H](OC(=O)c3ccccc3)[C@]3(O)C[C@H](OC(=O)[C@H](O)[C@@H](NC(=O)c4ccccc4)c4ccccc4)C(C)=C1C3(C)C)[C@]1(OC(C)=O)CO[C@@H]1C[C@@H]2O` + Cc1cnc(CNC(=O)c2c(=O)c3ccc(N4CCCN(C)CC4)nc3n3c2sc2ccccc23)cn1 the IC50 (second compound 0.0316 µM) was < 31.6 nM, the IC50 (second compound 0.1 µM) was < 31.6 nM and the IC50 (second compound 0.316 µM) was < 31.6 nM. The IC50 (second compound 1 µM) was < 31.6 nM, the IC50 (second compound 3.16 µM) was < 31.6 nM and the IC50 (second compound 10 µM) was < 31.6 nM. It also gave a viability, T/C [1] of 3.55%, a viability, T/C [13] of 2.41% and a viability, T/C [2] of 2.38%. The viability, T/C [14] was 2.61%, the viability, T/C [15] was 4.35% and the viability, T/C [16] was 6.47%. It also gave a viability, T/C [3] of 3.6%, a viability, T/C [17] of 2.87% and a viability, T/C [4] of 3.34%. For the same molecule, the viability, T/C [18] was 3.44%, the viability, T/C [19] was 4.23% and the viability, T/C [20] was 5.96%. The viability, T/C [5] was 6.14%, the viability, T/C [21] was 5.32% and the viability, T/C [6] was 4.53%. The viability, T/C [22] was 4.82%, the viability, T/C [23] was 6.03% and the viability, T/C [24] was 6.11%. For the same molecule, the viability, T/C [7] was 4.85%, the viability, T/C [25] was 3.94% and the viability, T/C [8] was 4.08%. The viability, T/C [26] was 3.75%, the viability, T/C [27] was 5.24% and the viability, T/C [28] was 5.33%. It also gave a viability, T/C [9] of 3.56%, a viability, T/C [29] of 2.87% and a viability, T/C [10] of 3.36%. The viability, T/C [30] was 2.75%, the viability, T/C [31] was 3.86% and the viability, T/C [32] was 3.56%. For the same molecule, the viability, T/C [11] was 0.08%, the viability, T/C [33] was 0.11% and the viability, T/C [12] was 0.1%. For the same molecule, the viability, T/C [34] was 0.09%, the viability, T/C [35] was 0.1% and the viability, T/C [36] was 0.11%.
`Nc1ccn(C2OC(CO)C(O)C2(F)F)c(=O)n1` (stereo not drawn) + Cc1[nH]c2ccc(F)cc2c1-c1nc2c3cccnc3c3ncccc3c2[nH]1 was tested, and the IC50 (second compound 0.0316 µM) was < 31.6 nM, the IC50 (second compound 0.1 µM) was < 31.6 nM and the IC50 (second compound 0.316 µM) was < 31.6 nM. For the same molecule, the IC50 (second compound 1 µM) was < 31.6 nM, the IC50 (second compound 3.16 µM) was < 31.6 nM and the IC50 (second compound 10 µM) was < 31.6 nM. For the same molecule, the viability, T/C [1] was 7.33%, the viability, T/C [13] was 1.13% and the viability, T/C [2] was 0.84%. It also gave a viability, T/C [14] of 0.84%, a viability, T/C [15] of 1.15% and a viability, T/C [16] of 0.76%. The viability, T/C [3] was 7.75%, the viability, T/C [17] was 1% and the viability, T/C [4] was 1.28%. For the same molecule, the viability, T/C [18] was 1.1%, the viability, T/C [19] was 0.83% and the viability, T/C [20] was 0.76%. The viability, T/C [5] was 5.74%, the viability, T/C [21] was 1.09% and the viability, T/C [6] was 1.33%. The viability, T/C [22] was 0.83%, the viability, T/C [23] was 0.67% and the viability, T/C [24] was 0.86%. For the same molecule, the viability, T/C [7] was 7.53%, the viability, T/C [25] was 0.98% and the viability, T/C [8] was 1.01%. It also gave a viability, T/C [26] of 0.85%, a viability, T/C [27] of 0.92% and a viability, T/C [28] of 0.83%. The viability, T/C [9] was 4.68%, the viability, T/C [29] was 1.2% and the viability, T/C [10] was 1.1%. For the same molecule, the viability, T/C [30] was 0.82%, the viability, T/C [31] was 1.7% and the viability, T/C [32] was 0.93%. It also gave a viability, T/C [11] of 2.75%, a viability, T/C [33] of 1.07% and a viability, T/C [12] of 0.98%. For the same molecule, the viability, T/C [34] was 0.76%, the viability, T/C [35] was 1.44% and the viability, T/C [36] was 0.94%.
With `COc1ncnc(C2CC2)c1-c1ncc2cnn(Cc3ccc(-c4nc(C(F)(F)F)cn4C(C)C)cc3)c2n1` + Cc1[nH]c2ccc(F)cc2c1-c1nc2c3cccnc3c3ncccc3c2[nH]1 the IC50 (second compound 0.0316 µM) was > 10000 nM, the IC50 (second compound 0.1 µM) was > 10000 nM and the IC50 (second compound 0.316 µM) was > 10000 nM. For the same molecule, the IC50 (second compound 1 µM) was > 10000 nM, the IC50 (second compound 3.16 µM) was > 10000 nM and the IC50 (second compound 10 µM) was > 10000 nM. For the same molecule, the viability, T/C [1] was 106%, the viability, T/C [13] was 99.2% and the viability, T/C [2] was 104%. It also gave a viability, T/C [14] of 99.7%, a viability, T/C [15] of 104% and a viability, T/C [16] of 107%. For the same molecule, the viability, T/C [3] was 106%, the viability, T/C [17] was 105% and the viability, T/C [4] was 104%. It also gave a viability, T/C [18] of 99.6%, a viability, T/C [19] of 100% and a viability, T/C [20] of 107%. It also gave a viability, T/C [5] of 101%, a viability, T/C [21] of 99.8% and a viability, T/C [6] of 107%. The viability, T/C [22] was 100%, the viability, T/C [23] was 102% and the viability, T/C [24] was 96.5%. For the same molecule, the viability, T/C [7] was 98.2%, the viability, T/C [25] was 105% and the viability, T/C [8] was 107%. The viability, T/C [26] was 104%, the viability, T/C [27] was 108% and the viability, T/C [28] was 110%. It also gave a viability, T/C [9] of 107%, a viability, T/C [29] of 106% and a viability, T/C [10] of 108%. The viability, T/C [30] was 108%, the viability, T/C [31] was 109% and the viability, T/C [32] was 110%. The viability, T/C [11] was 107%, the viability, T/C [33] was 104% and the viability, T/C [12] was 109%. For the same molecule, the viability, T/C [34] was 104%, the viability, T/C [35] was 111% and the viability, T/C [36] was 111%.
